Results as given in US20080269237A1, “CARBAMIC ACID COMPOUNDS COMPRISING A PIPERAZINE LINKAGE AS HDAC INHIBITORS” (TOPOTARGET UK LIMITED, priority 2002, published 2008).
Structures can show the parent of a compound that is named as a salt.

Compound | melting point
O=C(CCCCCCC(=O)N1CCN(CC(c2ccccc2)c2ccccc2)CC1)NO [PX118909, 8-[4-(2,2-Diphenyl-ethyl)-piperazin-1-yl]-8-oxo octanoic acid hydroxyamide] | 117 to 118 °C
O=C(/C=C/c1cccc(S(=O)(=O)N2CCN(c3ncccn3)CC2)c1)NO [PX118894, (E)-N-Hydroxy-3-(3{-[4-(2-pyrimidinyl)-1-piperazinyl]sulfonyl}-phenyl)-2-propenamide] | 200 °C
O=C(CCCCCCC(=O)N1CCN(c2cccc(C(F)(F)F)c2)CC1)NO [PX118860, 8-Oxo-8-[4-(3-trifluoromethylphenyl)-piperazin-1-yl]-octanoic acid hydroxyamide] | 126 to 128 °C
COc1cccc(N2CCN(S(=O)(=O)c3cccc(/C=C/C(=O)NO)c3)CC2)c1 [PX118872, (E)-N-hydroxy-3-(3-{[4(3-methoxyphenyl)piperazinyl]sulfonyl}phenyl)-2-propenamide] | 196 °C
O=C(CCCCCC(=O)N1CCN(c2ccc(Cl)c(Cl)c2)CC1)NO [PX118989, 7-[4-(3,4-Dichlorophenyl)-1-piperazinyl]-N-hydroxy-7-oxoheptanamide] | 125 to 126 °C
CN(C)c1ccc(CCN2CCN(C(=O)CCCCCCC(=O)NO)CC2)cc1 [PX118928, 8-{4-[4-(Dimethylamino)phenethyl]-1-piperazinyl}-N-hydroxy-8-oxooctanamide] | 103 to 105 °C
O=C(CCCCCCC(=O)N1CCN(CCc2ccc3ccccc3c2)CC1)NO [PX118908, 8-[4-(2-Naphthalen-2-yl-ethyl)-piperazin-1-yl]-8-oxo octanoic acid hydroxyamide] | 118 to 120 °C
C=C(Cl)c1ccc(N2CCN(S(=O)(=O)c3cccc(/C=C/C(=O)NO)c3)CC2)cc1 [PX118933, (E)-3-[3-({4-[4-(1-Chlorovinyl)phenyl]-1-piperazinyl}sulfonyl)phenyl]-N-hydroxy-2-propenamide] | 203 °C (dec.)
O=C(CCCCCCC(=O)N1CCN(C(=O)Cc2csc3ccccc23)CC1)NO [PX118967, 8-{4-[2-(1-Benzothiophen-3-yl)acetyl]-1-piperazinyl}-N-hydroxy-8-oxooctanamide] | 140 to 141 °C
O=C(/C=C/c1ccc(S(=O)(=O)N2CCN(C(c3ccc(F)cc3)c3ccc(F)cc3)CC2)cc1)NO [PX118965, (E)-3-[4-({4-[Bis(4-fluorophenyl)methyl]-1-piperazinyl}sulfonyl)phenyl]-N-hydroxy-2-propenamide] | 125 to 126 °C
O=C(CCCCCCC(=O)N1CCN(C(=O)COc2ccc3ccccc3c2)CC1)NO [PX118929, N-Hydroxy-8-{4-[2-(2-naphthyloxy)acetyl]-1-piperazinyl}-8-oxooctanamide] | 139 to 140.5 °C
O=C(/C=C/c1cccc(S(=O)(=O)N2CCN(C/C=C/c3ccccc3)CC2)c1)NO [PX118870, (E)-N-Hydroxy-3-[3-({4-[(E)-3-phenyl-2-propenyl]-1-piperazinyl}sulfonyl)phenyl]-2-propenamide] | 178 °C
O=C(/C=C/c1cccc(S(=O)(=O)N2CCN(CCOc3cccc4ccccc34)CC2)c1)NO [PX118934, (E)-N-Hydroxy-3-[3-({4-[2-(1-naphthyloxy)ethyl]-1-piperazinyl}-sulfonyl)phenyl]-2-propenamide] | 178 °C
O=C(/C=C/c1cccc(S(=O)(=O)N2CCN(Cc3ccc4c(c3)OCO4)CC2)c1)NO [PX118873, (E)-3-(3-{[4-(1,3-Benzodioxol-5-ylmethyl)-1-piperazinyl]sulfonyl}-phenyl)-N-hydroxy-2-propenamide] | 172 °C
O=C(CCCCCCC(=O)N1CCN(c2cccc(F)c2)CC1)NO [PX118859, 8-[4-(3-Fluorophenyl)-piperazin-1-yl]-8-oxooctanoic acid hydroxyamide] | 149 to 150.5 °C
COc1cccc(N2CCN(S(=O)(=O)c3ccc(/C=C/C(=O)NO)cc3)CC2)c1 [PX118892, (E)-N-Hydroxy-3-(4-{[4-(3-methoxyphenyl)-1-piperazinyl]sulfonyl}phenyl)-2-propenamide] | 199 to 200 °C
O=C(/C=C/c1ccc(S(=O)(=O)N2CCN(c3ccccc3F)CC2)cc1)NO [PX118891, (E)-3-(4-{[4-(2-Fluorophenyl)-1-piperazinyl]sulfonyl}phenyl)-N-hydroxy-2-propenamide] | 196 to 197 °C
O=C(CCCCCC(=O)N1CCN(CCCc2c[nH]c3ccccc23)CC1)NO [PX118970, N-Hydroxy-7-{4-[3-(1H-indol-3-yl)propyl]-1-piperazinyl}-7-oxoheptanamide] | 165 to 166 °C
O=C(/C=C/c1cccc(S(=O)(=O)N2CCN(c3cccc(C(F)(F)F)c3)CC2)c1)NO [PX118878, (E)-N-Hydroxy-3-[3-({4-[3-(trifluoromethyl)phenyl]-1-piperazinyl}sulfonyl)phenyl]-2-propenamide] | 173 °C
O=C(/C=C/c1cccc(S(=O)(=O)N2CCN(c3ccc(Cl)c(Cl)c3)CC2)c1)NO [PX118971, (E)-3-(3-{[4-(3,4-Dichlorophenyl)-1-piperazinyl]sulfonyl}phenyl)-N-hydroxy-2-propenamide] | 193 °C

Compound | melting point
O=C(CCCCCC(=O)N1CCN(C(=O)CCc2c[nH]c3ccccc23)CC1)NO [PX118968, N-Hydroxy-7-{4-[3-(1H-indol-3-yl)propanoyl]-1-piperazinyl}-7-oxoheptanamide] | 152.5 to 153.5 °C
O=C(CCCCCC(=O)N1CCN(c2ccc(F)cc2)CC1)NO [PX118990, 7-[4-(4-Fluorophenyl)-1-piperazinyl]-N-hydroxy-7-oxoheptanamide] | 119 to 120 °C
O=C(CCCCCC(=O)N1CCN(c2ccccn2)CC1)NO (as salt: oxalate) [PX118845, 7-Oxo-7-(4-pyridin-2-yl-piperazin-1-yl]-heptanoic acid hydroxyamide oxalate] | 118 to 122 °C
O=C(/C=C/c1cccc(S(=O)(=O)N2CCN(c3ccc(Cl)cc3)CC2)c1)NO [PX118972, (E)-3-(3-{[4-(4-Chlorophenyl)-1-piperazinyl]sulfonyl}phenyl)-N-hydroxy-2-propenamide] | 215 °C
O=C(CCCCCC(=O)N1CCN(Cc2c[nH]c3ccccc23)CC1)NO [PX118978, N-Hydroxy-7-[4-(1H-indol-3-ylmethyl)-1-piperazinyl]-7-oxoheptanamide] | 65 to 67 °C
O=C(CCCCCC(=O)N1CCN(C(=O)c2c[nH]c3ccccc23)CC1)NO [PX118969, N-Hydroxy-7-[4-(1H-indol-3-ylcarbonyl)-1-piperazinyl]-7-oxoheptanamide] | 86 to 88 °C
O=C(/C=C/c1cccc(S(=O)(=O)N2CCN(Cc3ccccc3)CC2)c1)NO [PX118874, (E)-3-{3-[(4-Benzyl-1-piperazinyl)sulfonyl]phenyl}-N-hydroxy-2-propenamide] | 185 °C
O=C(CCCCCC(=O)N1CCN(c2ccc(Cl)cc2)CC1)NO [PX118991, 7-[4-(4-Chlorophenyl)-1-piperazinyl]-N-hydroxy-7-oxoheptanamide] | 119 to 121 °C
O=C(/C=C/c1ccc(S(=O)(=O)N2CCN(c3cccc(C(F)(F)F)c3)CC2)cc1)NO [PX118937, (E)-N-Hydroxy-3-[4-({4-[3-(trifluoromethyl)phenyl]-1-piperazinyl}-sulfonyl)phenyl]-2-propenamide] | 178 to 179 °C
O=C(/C=C/c1ccc(S(=O)(=O)N2CCN(c3ccc([N+](=O)[O-])cc3)CC2)cc1)NO [PX118918, (E)-N-Hydroxy-3-(4-{[4-(4-nitrophenyl)-1-piperazinyl]sulfonyl}phenyl)-2-propenamide] | 199 to 200 °C
O=C(/C=C/c1cccc(S(=O)(=O)N2CCN(CC(c3ccccc3)c3ccccc3)CC2)c1)NO [PX118913, (E)-3-(3-{[4-(2,2-Diphenylethyl)-1-piperazinyl]sulfonyl}phenyl)-N-hydroxy-2-propenamide] | 117 °C (dec.)
COc1ccc2[nH]cc(CCN3CCN(C(=O)CCCCCCC(=O)NO)CC3)c2c1.O=C(O)C(=O)O | 122 to 125 °C
Cc1cccc(N2CCN(C(=O)CCCCCCC(=O)NO)CC2C)c1 (stereo not shown) [PX118899, 8-(3-Methyl-4-m-tolyl-piperazin-1-yl)-8-oxo octanoic acid hydroxyamide] | 75 to 76 °C
O=C(/C=C/c1cccc(S(=O)(=O)N2CCN(c3ccccc3F)CC2)c1)NO [PX118877, (E)-3-(3-{[4-(2-Fluorophenyl)-1-piperazinyl]sulfonyl}phenyl)-N-hydroxy-2-propenamide] | 176 °C
Cc1ccc(N2CCN(C(=O)CCCCCC(=O)NO)CC2)cc1C [PX118994, 7-[4-(3,4-Dimethylphenyl)-1-piperazinyl]-N-hydroxy-7-oxoheptanamide] | 119.5 to 120.5 °C
O=C(/C=C/c1cccc(S(=O)(=O)N2CCN(CCOc3ccc4ccccc4c3)CC2)c1)NO [PX118935, (E)-N-Hydroxy-3-[3-({4-[2-(2-naphthyloxy)ethyl]-1-piperazinyl}-sulfonyl)phenyl]-2-propenamide] | 130 °C
O=C(CCCCCCC(=O)N1CCN(c2ccccc2)CC1)NO [PX117402, 8-Oxo-8-(4-phenyl-piperazin-1-yl)-octanoic acid hydroxyamide] | 134 to 136 °C
C/C(=N\O)c1ccc(N2CCN(C(=O)CCCCCCC(=O)NO)CC2)cc1 [PX118903, 8-{4-[4-(1-Hydroxyimino-ethyl)-phenyl]-piperazin-1-yl}-8-oxo octanoic acid hydroxyamide] | 147 to 147.5 °C
CN(C)c1ccc(CCN2CCN(S(=O)(=O)c3cccc(/C=C/C(=O)NO)c3)CC2)cc1 [PX118951, (E)-3-[3-({4-[4-(Dimethylamino)phenethyl]-1-piperazinyl}sulfonyl)phenyl]-N-hydroxy-2-propenamide] | 189 °C
O=C(/C=C/c1cccc(S(=O)(=O)N2CCN(CCc3ccc4ccccc4c3)CC2)c1)NO [PX118914, (E)-N-Hydroxy-3-[3-({4-[2-(2naphthyl)ethyl]-1-piperazinyl}sulfonyl)phenyl]-2-propenamide] | 184 °C
